Measurements published in patent US4342690A, “ω-Heteroaroyl(propionyl or butyryl)-L-prolines” (American Cyanamid Company, priority 1981, dated 1982).

target: T1, angiotensin converting enzyme (Oryctolagus cuniculus, UniProt P12822); assay: Spectrophotometric Assay for Angiotensin Converting Enzyme Inhibitors; format: biochemical; details: substrate benzoyl-glycyl-histidyl-leucine; crude ACE extract from rabbit lung acetone powder; 30 minutes at 37° C.
T1 construct: The ACE was extracted from rabbit lung acetone powder; tissue Pel-Freez Biol. Inc; host or cells: rabbit lung (acetone powder)
T1 sequence (P12822 34-1310): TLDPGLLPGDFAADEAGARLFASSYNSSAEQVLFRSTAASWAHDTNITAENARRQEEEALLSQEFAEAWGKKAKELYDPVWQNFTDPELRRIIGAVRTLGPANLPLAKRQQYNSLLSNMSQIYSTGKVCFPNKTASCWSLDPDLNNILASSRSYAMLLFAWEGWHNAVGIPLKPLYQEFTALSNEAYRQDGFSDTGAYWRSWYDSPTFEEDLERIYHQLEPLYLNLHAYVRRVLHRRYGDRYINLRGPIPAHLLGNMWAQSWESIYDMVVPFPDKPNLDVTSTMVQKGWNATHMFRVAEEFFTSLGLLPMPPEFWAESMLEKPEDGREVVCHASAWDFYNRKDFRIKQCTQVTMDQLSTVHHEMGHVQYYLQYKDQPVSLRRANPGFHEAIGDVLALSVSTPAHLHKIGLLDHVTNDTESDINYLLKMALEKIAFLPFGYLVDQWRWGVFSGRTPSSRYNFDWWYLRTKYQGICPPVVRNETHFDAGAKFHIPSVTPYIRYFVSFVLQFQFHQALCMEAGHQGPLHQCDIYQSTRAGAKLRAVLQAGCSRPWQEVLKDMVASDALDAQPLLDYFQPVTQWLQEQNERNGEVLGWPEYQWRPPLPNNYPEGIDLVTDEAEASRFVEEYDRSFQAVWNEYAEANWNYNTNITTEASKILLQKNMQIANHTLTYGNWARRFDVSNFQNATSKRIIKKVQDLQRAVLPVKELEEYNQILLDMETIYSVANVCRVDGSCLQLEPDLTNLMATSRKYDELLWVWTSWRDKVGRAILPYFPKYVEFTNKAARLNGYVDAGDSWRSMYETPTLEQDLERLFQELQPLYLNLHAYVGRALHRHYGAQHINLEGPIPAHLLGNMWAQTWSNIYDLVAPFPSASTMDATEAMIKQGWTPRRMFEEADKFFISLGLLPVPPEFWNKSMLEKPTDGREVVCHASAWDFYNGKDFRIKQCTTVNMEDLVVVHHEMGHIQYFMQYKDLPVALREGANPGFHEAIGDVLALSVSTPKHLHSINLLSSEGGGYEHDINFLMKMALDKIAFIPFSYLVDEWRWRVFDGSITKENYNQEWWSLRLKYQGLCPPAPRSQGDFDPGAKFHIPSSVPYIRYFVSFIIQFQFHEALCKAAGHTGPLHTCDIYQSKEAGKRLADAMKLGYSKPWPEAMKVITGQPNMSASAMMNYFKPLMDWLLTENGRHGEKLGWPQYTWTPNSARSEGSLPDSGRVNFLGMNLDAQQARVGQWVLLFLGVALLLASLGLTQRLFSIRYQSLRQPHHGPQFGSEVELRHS
Description: The activity of the novel compounds of this invention as hypotensive agents was established in two systems which measure their ability as angiotensin converting enzyme inhibitors; by utilizing a spectrophotometric assay of the compounds in vitro and by the measurement of the blood pressure lowering effect of the compounds in the aorta-coarcted renal hypertensive rats.
Spectrophotometric Assay for Angiotensin Converting Enzyme Inhibitors
The in vitro activity for inhibition of the angiotensin converting enzyme (ACE) was measured by the method of Cushman, D. W. and Cheung, H. S., Biochem. Pharmacol., 20, 1637-1648 (1971), using benzoyl-glycyl-histidyl-leucine as the substrate. The reaction mixture consisted of 50 μl. of potassium phosphate (500 mM., pH 10.2), […]. of sodium chloride (2500 mM.), 25 μl. of substrate (50 mM.), 30 to 50 μl. of the crude extract of ACE, 10 μl. of test compound (2.5 mM.) or vehicle and a suitable amount of distilled water to give a total volume of 250 μl. This reaction mixture was incubated for 30 minutes at 37° C. and the reaction was then terminated by the addition of 250 μl. of 1 N hydrochloric acid. The hippuric acid was then extracted with 1.5 ml. of ethyl acetate by vortex mixing for 15 seconds. After centrifugation, one ml. of th ethyl acetate layer was pipetted into a new tube and vaporated to dryness. The extracted hippuric acid was then dissolved in one ml. of water and the amount of this acid was then measured by its absorbance at 228 nm. The ACE was extracted from rabbit lung acetone powder (Pel-Freez Biol. Inc.) by blending 5 g. of the powder in 50 ml. of phosphate buffer (50 mM., pH 8.3) and then centrifuging at 40,000 g for 40 minutes. The supernatant was then kept at 5° C. and used as the enzyme source. The activity of the ACE inhibitor was calculated as the percent inhibition of ACE activity compared to the control value of that particular assay. A full dose-response inhibitory curve is then performed to determine the IC50 value which may be defined as the molar concentration of a compound that will inhibit the ACE activity by 50%.

| IC50 [nM] | SMILES |
| --- | --- |
| 675 | CC(=O)SC(CC(=O)N1CCC[C@H]1C(=O)O)C(=O)c1ccco1 (stereo partly drawn) [Example 36, 1-[3-Acetylthio-3-(2-furoyl)propionyl]-L-proline] |
| 139 | CC(=O)SC(CC(=O)N1CCC[C@H]1C(=O)O)C(=O)c1csc2ccccc12 (stereo partly drawn) [Example 4, 1-[3-(Acetylthio)-3-(benzo[b]thien-3-ylcarbonyl)propionyl]-L-proline] |

More lines, now with the values behind:

| SMILES | IC50 [nM] |
| --- | --- |
| CC(=O)SC(CC(=O)N1CCC[C@H]1C(=O)O)C(=O)c1ccc(Cl)s1 (stereo partly drawn) [Example 3, 1-[3-(Acetylthio)-3-(5-chloro-2-thenoyl)propionyl]-L-proline] | 108 |
| CC(=O)SC(CC(=O)N1CCC[C@H]1C(=O)O)C(=O)c1cccs1 (stereo partly drawn) [Example 1, 1-[3-(Acetylthio)-3-(2-thenoyl)propionyl]-L-proline] | 256 |
| CC(=O)SC(C(=O)c1cc2ccccc2s1)C(C)C(=O)N1CCC[C@H]1C(=O)O (stereo partly drawn) [Example 35, 1-[3-Acetylthio-3-(benzo[b]thien-2-ylcarbonyl)-2-methylpropionyl]-L-proline] | 21000 |
| CC(=O)SC(CC(=O)N1CCC[C@H]1C(=O)O)C(=O)c1ccc(Br)s1 (stereo partly drawn) [Example 2, 1-[3-(Acetylthio)-3-(5-bromo-2-thenoyl)propionyl]-L-proline] | 109 |
| CC(=O)SC(CC(=O)N1CCC[C@H]1C(=O)O)C(=O)c1cc2ccccc2o1 (stereo partly drawn) [Example 37, 1-[3-Acetylthio-3-(2-benzofuranylcarbonyl)propionyl]-L-proline] | 74 |
